Assay results reported in patent publication US6355799B1, “Substituted benzene compounds, process for their preparation, and herbicidal and defoliant compositions containing them” (ISK Americas Incorporated, priority 1997, dated 2002).

Key:
Format in all cases: in vivo
[1] = test system: johnsongrass (Sorghum halepense, SORHA); test: Post-emerge test, greenhouse herbicide activity screening; details: post-emerge, 14 days after application, rating scale 0-100
Procedure, shortened: (§1)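 Herbicidal damage is scored 0 (none) to 100 (complete plant death) two weeks after a simulated field spray. Rates span 15–1000 g ai/ha, delivered in acetone at 187 l/ha. For post-emergence treatments, plants have 2–3 leaves and the spray carries 0.25% v/v non-ionic surfactant.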

[2] = test system: green foxtail (Setaria viridis, SETVI); test: as above; details: post-emerge, 14 days after application, rating scale 0-100
Procedure, shortened: as §1

[3] = test system: sicklepod (Cassia obtusifolia, CASOB); test: as above; details: post-emerge, 14 days after application, rating scale 0-100
Procedure, shortened: as §1

[4] = test system: redroot pigweed (Amaranthus retroflexus, AMARE); test: as above; details: post-emerge, 14 days after application
Procedure, shortened: as §1

[5] = test system: ivyleaf morningglory (Ipomoea hederacea, IPOHE); test: as above; details: post-emerge, 14 days after application, rating scale 0-100
Procedure, shortened: as §1

[6] = test system: lambsquarters (Chenopodium album, CHEAL); test: as above; details: post-emerge, 14 days after application, rating scale 0-100
Procedure, shortened: as §1

[7] = test system: barnyardgrass (Echinochloa crus-galli, ECHCG); test: as above; details: post-emerge, 14 days after application, rating scale 0-100
Procedure, shortened: as §1

[8] = test system: large crabgrass (Digitaria sanguinalis, DIGSA); test: as above; details: post-emerge, 14 days after application, rating scale 0-100
Procedure, shortened: as §1

[9] = test system: velvetleaf (Abutilon theophrasti, ABUTH); test: as above; details: post-emerge, 14 days after application, rating scale 0-100
Procedure, shortened: as §1

[10] = test system: upland rice (Oryza sp., var. Tebonnet, RICE); test: Post-emerge test, crop safety; details: post-emerge, 14 days after application, rating scale 0-100
Procedure, shortened: (§2)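 Compounds in acetone were track-sprayed at 15-1000 g ai/ha (187 l/ha) on sandy loam pots: pre-emerge one day after seeding, post-emerge at 2-3 leaf stage with 0.25% v/v non-ionic surfactant. Phytotoxicity was rated 14 days later on a 0 (no damage) to 100 (complete death) scale.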

[11] = test system: field corn (Zea mays L., var. Dekalb 535, CORN); test: Post-emerge test, crop safety; details: post-emerge, 14 days after application, rating scale 0-100
Procedure, shortened: as §2

[12] = test system: upland rice (Oryza sp., var. Tebonnet, RICE); test: Pre-emerge test, crop safety; details: pre-emerge, 14 days after application, rating scale 0-100
Procedure, shortened: (§3)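 Visual ratings on a 0-100 scale (0 no damage, 100 all plants dead) were taken at 14 days after treatment. Rates of 15-1000 g ai/ha in acetone, 187 l/ha, were sprayed onto soil one day after planting (pre-emerge) or onto 2-3 leaf plants with 0.25% v/v surfactant (post-emerge).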

[13] = test system: field corn (Zea mays L., var. Dekalb 535, CORN); test: Pre-emerge test, crop safety; details: pre-emerge, 14 days after application, rating scale 0-100
Procedure, shortened: as §3

[14] = test system: johnsongrass (Sorghum halepense, SORHA); test: Pre-emerge test, greenhouse herbicide activity screening; details: pre-emerge, 14 days after application, rating scale 0-100
Procedure, shortened: as §2

[15] = test system: green foxtail (Setaria viridis, SETVI); test: as above; details: pre-emerge, 14 days after application, rating scale 0-100
Procedure, shortened: as §2

[16] = test system: sicklepod (Cassia obtusifolia, CASOB); test: as above; details: pre-emerge, 14 days after application, rating scale 0-100
Procedure, shortened: as §2

[17] = test system: ivyleaf morningglory (Ipomoea hederacea, IPOHE); test: as above; details: pre-emerge, 14 days after application, rating scale 0-100
Procedure, shortened: as §2

[18] = test system: common ragweed (Ambrosia artemisizfolia L., AMBEL); test: as above; details: pre-emerge, 14 days after application, rating scale 0-100
Procedure, shortened: as §2

[19] = test system: lambsquarters (Chenopodium album, CHEAL); test: as above; details: pre-emerge, 14 days after application, rating scale 0-100
Procedure, shortened: as §2

[20] = test system: barnyardgrass (Echinochloa crus-galli, ECHCG); test: as above; details: pre-emerge, 14 days after application, rating scale 0-100
Procedure, shortened: as §2

[21] = test system: large crabgrass (Digitaria sanguinalis, DIGSA); test: as above; details: pre-emerge, 14 days after application, rating scale 0-100
Procedure, shortened: as §2

[22] = test system: velvetleaf (Abutilon theophrasti, ABUTH); test: as above; details: pre-emerge, 14 days after application, rating scale 0-100
Procedure, shortened: as §2

[23] = test system: redroot pigweed (Amaranthus retroflexus, AMARE); test: as above; details: pre-emerge, 14 days after application, rating scale 0-100
Procedure, shortened: as §1

[24] = 63 g ai/ha, rating scale 0-100 (0 no damage, 100 complete death)
[25] = 250 g ai/ha, rating scale 0-100

CCCOC(=O)C(Cl)Cc1c(OCC)c(Cl)cc(F)c1-n1c(=O)cc(C(F)(F)F)n(C)c1=O (centres unmarked) [14-66]
Post-emerge Herbicidal Activity SORHA (phytotoxicity rating) ([1]; 63 g ai/ha): 60 | Post-emerge Herbicidal Activity SORHA (phytotoxicity rating) ([1]; 250 g ai/ha): 80 | Post-emerge Herbicidal Activity SETVI (phytotoxicity rating) ([2]; 63 g ai/ha): 95 | Post-emerge Herbicidal Activity SETVI (phytotoxicity rating) ([2]; 250 g ai/ha): 100 | Post-emerge Herbicidal Activity CASOB (phytotoxicity rating) ([3]; 63 g ai/ha): 80 | Post-emerge Herbicidal Activity CASOB (phytotoxicity rating) ([3]; 250 g ai/ha): 90 | Post-emerge Herbicidal Activity AMARE (phytotoxicity rating) [4, 24]: 95 | Post-emerge Herbicidal Activity AMARE (phytotoxicity rating) [4, 25]: 100 | Post-emerge Herbicidal Activity IPOHE (phytotoxicity rating) ([5]; 63 g ai/ha): 70 | Post-emerge Herbicidal Activity IPOHE (phytotoxicity rating) ([5]; 250 g ai/ha): 90 | Post-emerge Herbicidal Activity CHEAL (phytotoxicity rating) ([6]; 63 g ai/ha): 80 | Post-emerge Herbicidal Activity CHEAL (phytotoxicity rating) ([6]; 250 g ai/ha): 99 | Post-emerge Herbicidal Activity ECHCG (phytotoxicity rating) ([7]; 63 g ai/ha): 100 | Post-emerge Herbicidal Activity ECHCG (phytotoxicity rating) ([7]; 250 g ai/ha): 100 | Post-emerge Herbicidal Activity DIGSA (phytotoxicity rating) ([8]; 63 g ai/ha): 100 | Post-emerge Herbicidal Activity DIGSA (phytotoxicity rating) ([8]; 250 g ai/ha): 100 | Post-emerge Herbicidal Activity ABUTH (phytotoxicity rating) ([9]; 63 g ai/ha): 100 | Post-emerge Herbicidal Activity ABUTH (phytotoxicity rating) ([9]; 250 g ai/ha): 100 | Post-emerge Herbicidal Activity RICE (crop damage rating) ([10]; 63 g ai/ha): 0 | Post-emerge Herbicidal Activity RICE (crop damage rating) ([10]; 250 g ai/ha): 10 | Post-emerge Herbicidal Activity CORN (crop damage rating) ([11]; 63 g ai/ha): 90 | Post-emerge Herbicidal Activity CORN (crop damage rating) ([11]; 250 g ai/ha): 100 | phytotoxicity rating RICE ([12]; 63 g ai/ha): 0 | phytotoxicity rating RICE ([12]; 250 g ai/ha): 20 | phytotoxicity rating CORN ([13]; 63 g ai/ha): 0 | phytotoxicity rating CORN ([13]; 250 g ai/ha): 0 | phytotoxicity rating SORHA ([14]; 63 g ai/ha): 0 | phytotoxicity rating SORHA ([14]; 250 g ai/ha): 30 | phytotoxicity rating SETVI ([15]; 63 g ai/ha): 20 | phytotoxicity rating SETVI ([15]; 250 g ai/ha): 100 | phytotoxicity rating CASOB ([16]; 63 g ai/ha): 0 | phytotoxicity rating CASOB ([16]; 250 g ai/ha): 0 | phytotoxicity rating IPOHE ([17]; 63 g ai/ha): 0 | phytotoxicity rating IPOHE ([17]; 250 g ai/ha): 60 | phytotoxicity rating AMBEL ([18]; 63 g ai/ha): 0 | phytotoxicity rating AMBEL ([18]; 250 g ai/ha): 0 | phytotoxicity rating CHEAL ([19]; 63 g ai/ha): 90 | phytotoxicity rating CHEAL ([19]; 250 g ai/ha): 100 | phytotoxicity rating ECHCG ([20]; 63 g ai/ha): 50 | phytotoxicity rating ECHCG ([20]; 250 g ai/ha): 100 | phytotoxicity rating DIGSA ([21]; 63 g ai/ha): 90 | phytotoxicity rating DIGSA ([21]; 250 g ai/ha): 100 | phytotoxicity rating ABUTH ([22]; 63 g ai/ha): 90 | phytotoxicity rating ABUTH ([22]; 250 g ai/ha): 100 | phytotoxicity rating AMARE ([23]; 63 g ai/ha): 100 | phytotoxicity rating AMARE ([23]; 250 g ai/ha): 100

CCCOC(=O)C(Cl)Cc1c(OCC)c(Cl)cc(F)c1-n1c(=O)cc(C(F)(F)F)n(C)c1=O (centres unmarked) [14-65]
Post-emerge Herbicidal Activity SORHA (phytotoxicity rating) ([1]; 63 g ai/ha): 30 | Post-emerge Herbicidal Activity SORHA (phytotoxicity rating) ([1]; 250 g ai/ha): 60 | Post-emerge Herbicidal Activity SETVI (phytotoxicity rating) ([2]; 63 g ai/ha): 100 | Post-emerge Herbicidal Activity SETVI (phytotoxicity rating) ([2]; 250 g ai/ha): 100 | Post-emerge Herbicidal Activity CASOB (phytotoxicity rating) ([3]; 63 g ai/ha): 90 | Post-emerge Herbicidal Activity CASOB (phytotoxicity rating) ([3]; 250 g ai/ha): 100 | Post-emerge Herbicidal Activity AMARE (phytotoxicity rating) [4, 24]: 100 | Post-emerge Herbicidal Activity AMARE (phytotoxicity rating) [4, 25]: 100 | Post-emerge Herbicidal Activity IPOHE (phytotoxicity rating) ([5]; 63 g ai/ha): 50 | Post-emerge Herbicidal Activity IPOHE (phytotoxicity rating) ([5]; 250 g ai/ha): 70 | Post-emerge Herbicidal Activity CHEAL (phytotoxicity rating) ([6]; 63 g ai/ha): 90 | Post-emerge Herbicidal Activity CHEAL (phytotoxicity rating) ([6]; 250 g ai/ha): 100 | Post-emerge Herbicidal Activity ECHCG (phytotoxicity rating) ([7]; 63 g ai/ha): 100 | Post-emerge Herbicidal Activity ECHCG (phytotoxicity rating) ([7]; 250 g ai/ha): 100 | Post-emerge Herbicidal Activity DIGSA (phytotoxicity rating) ([8]; 63 g ai/ha): 99 | Post-emerge Herbicidal Activity DIGSA (phytotoxicity rating) ([8]; 250 g ai/ha): 100 | Post-emerge Herbicidal Activity ABUTH (phytotoxicity rating) ([9]; 63 g ai/ha): 100 | Post-emerge Herbicidal Activity ABUTH (phytotoxicity rating) ([9]; 250 g ai/ha): 100 | Post-emerge Herbicidal Activity RICE (crop damage rating) ([10]; 63 g ai/ha): 0 | Post-emerge Herbicidal Activity RICE (crop damage rating) ([10]; 250 g ai/ha): 10 | Post-emerge Herbicidal Activity CORN (crop damage rating) ([11]; 63 g ai/ha): 0 | Post-emerge Herbicidal Activity CORN (crop damage rating) ([11]; 250 g ai/ha): 50 | phytotoxicity rating RICE ([12]; 63 g ai/ha): 0 | phytotoxicity rating RICE ([12]; 250 g ai/ha): 0 | phytotoxicity rating CORN ([13]; 63 g ai/ha): 0 | phytotoxicity rating CORN ([13]; 250 g ai/ha): 0 | phytotoxicity rating SORHA ([14]; 63 g ai/ha): 20 | phytotoxicity rating SORHA ([14]; 250 g ai/ha): 20 | phytotoxicity rating SETVI ([15]; 63 g ai/ha): 20 | phytotoxicity rating SETVI ([15]; 250 g ai/ha): 90 | phytotoxicity rating CASOB ([16]; 63 g ai/ha): 40 | phytotoxicity rating CASOB ([16]; 250 g ai/ha): 80 | phytotoxicity rating IPOHE ([17]; 63 g ai/ha): 40 | phytotoxicity rating IPOHE ([17]; 250 g ai/ha): 70 | phytotoxicity rating AMBEL ([18]; 63 g ai/ha): 100 | phytotoxicity rating AMBEL ([18]; 250 g ai/ha): 70 | phytotoxicity rating CHEAL ([19]; 63 g ai/ha): 60 | phytotoxicity rating CHEAL ([19]; 250 g ai/ha): 100 | phytotoxicity rating ECHCG ([20]; 63 g ai/ha): 0 | phytotoxicity rating ECHCG ([20]; 250 g ai/ha): 80 | phytotoxicity rating DIGSA ([21]; 63 g ai/ha): 90 | phytotoxicity rating DIGSA ([21]; 250 g ai/ha): 100 | phytotoxicity rating ABUTH ([22]; 63 g ai/ha): 90 | phytotoxicity rating ABUTH ([22]; 250 g ai/ha): 100 | phytotoxicity rating AMARE ([23]; 63 g ai/ha): 100 | phytotoxicity rating AMARE ([23]; 250 g ai/ha): 100
